Measured values from patent US6946467B2, “Serine protease inhibitors” (Eli Lilly and Company, priority 2000, dated 2005).
Structures can show the parent of a compound that is named as a salt.

Row | melting point | SMILES
1 | 135 to 142 °C (dec.) | Cl.O=C(N[C@@H](C(=O)N1CCN(CCc2nccs2)CC1)c1ccccc1)c1ccc2cc[nH]c2c1
2 | 156 to 169 °C | Cl.N#Cc1cc(CCN2CCN(C(=O)[C@H](NC(=O)c3ccc4cc[nH]c4c3)c3ccccc3)CC2)ccn1
3 | 190 to 192 °C | COc1ccc(C(=O)N[C@@H](C(=O)N2CCN(CCC3CCCC3)CC2)c2ccccc2)cc1 (as salt: hydrochloride) [Example 30, 1-(4-Methoxybenzoyl-D-phenylglycinyl)-4-(2-cyclopentylethyl)piperazine]
4 | 135 to 145 °C (dec.) | O=C(N[C@@H](C(=O)N1CCN(CCc2ccncc2F)CC1)c1ccccc1)c1ccc2cc[nH]c2c1 [Example 58a, 1-[Indole-6-carbonyl-D-phenylglycinyl]-4-[2-(3-fluoropyridin-4-yl)ethyl]piperazine]
